Measured values taken from paper PMC8765781, “A platform of assays for the discovery of anti-Zika small-molecules with activity in a 3D-bioprinted outer-blood-retina model” (PLoS ONE, 2022).
Like-named read-outs stand apart in the source and are kept apart here.

What was measured:
[1] = test system: ZIKV-RLuc (Cambodian strain FSS13025); test: microbe, parasite or virus in culture; assay type: cell-based, Zika virus; details: Zika virus, Vero, 48 h, read-out: Rluc-ZIKV (ZIKV Antiviral Assays), IC50
[2] = test system: mCherry-ZIKV in human neuronal progenitor cells; test: microbe, parasite or virus in culture; assay type: cell-based, Zika virus; details: for AC50 / IC50: Zika virus, Neuronal progenitor cell; for IC50: read-out: NPC (ZIKV Antiviral Assays), IC50
[3] = test system: DENV (Dengue virus type 2, strain New Guinea C)
[4] = test system: caspase-3 activity induced by ZIKV in Vero cells; test: cells; assay type: cell-based; details: Zika virus, Vero, 48 h, read-out: Caspase 3 (ZIKV Antiviral Assays), IC50
in vitro [5] = details: human
[6] = test system: wild-type ZIKV (Ugandan MR766 strain) in Vero cells; test: ZIKV cytopathic effect (CPE) inhibition qHTS assay, CellTiter-Glo readout; assay type: cell-based, Zika virus; details: for AC50 / IC50: Zika virus, Vero; for IC50: 48 h, read-out: ZIKV-infection (CPE, ZIKV Antiviral Assays), IC50
in vitro [7] = details: African green monkey; for CC50 at 48 h: Vero cells
[8] = test system: ZIKV-mCherry (Cambodian strain FSS13025); test: microbe, parasite or virus in culture; assay type: cell-based, Zika virus; details: for AC50: Zika virus, Vero
in vitro [9] = details: human; remark: listed apart in the source
[10] = read-out: Log AC50 (M) (converted)

## C=C(F)c1sc(CNCCCNc2cc(=O)c3ccccc3[nH]2)c(C)c1Br [NCGC00386616-01]
[1]
  IC50: 8.27 µM
[2]
  Antiviral activity in human NPC: moderate antiviral activity
  CC-v2 (curve class): -2.2
  Efficacy: -88.323
  Max Resp: -56.18
  AC50: 3.98e-05 M
  IC50: 39.8 µM
[2]; [10]
  AC50: 3.98e-05 M
[3]
  DENV active Yes/No: No
[4]
  IC50: 1.05 µM
In vitro [5]
  CC50 at 24 h: > 30 µM
[6]
  Efficacy: -30.953
  AC50: 2.06e-05 M
  IC50: 20.6 µM
[6]; [10]
  AC50: 2.06e-05 M
In vitro [7]
  CC50 at 48 h: > 50 µM
ZIKV
  ZIKV active Yes/No: No
[8]
  CC-v2 (curve class of the dose response curve): -1.4
  Efficacy (difference between neutral response and maximum compound response): -70.696
  Max Resp (difference between neutral response and response at highest compound concentration): -94.173
YFV (YFV 17D)
  YFV active Yes/No: No
WNV (Kern515/WN02)
  WHV active Yes/No: No

## OC1C=C2C3CN(Cc4cc5c(cc43)OCO5)C2CC1O (centres unmarked) [NCGC00385948-01]
[1]
  IC50: 9.28 µM
[2]
  Antiviral activity in human NPC: effectively inhibited ZIKV in NPC cells
  CC-v2 (curve class): -1.2
  Efficacy: -64.358
  Max Resp: -62.953
  AC50: 1e-05 M
  IC50: 10 µM
[2]; [10]
  AC50: 1e-05 M
[3]
  Activity against DENV: active against DENV
  DENV active Yes/No: Yes
  SI value DENV (CC50/EC50): 16
  Selectivity Index DENV (CC50/EC50): 16
[4]
  IC50: 4.17 µM
In vitro [5]
  CC50: > 30 µM
[6]
  CC-v2 (curve class classification of the dose response curve): -2.2
  Efficacy: -79.681
  AC50: 2.59e-05 M
[6]; [10]
  AC50: 2.59e-05 M
In vitro [7]
  CC50: > 50 µM
ZIKV
  Activity against ZIKV: weaker against WNV and ZIKV
  SI value ZIKV (CC50/EC50): 4.7
  Selectivity Index ZIKV (CC50/EC50): 5
  ZIKV active Yes/No: Yes
[8]
  CC-v2 (curve class of the dose response curve): -1.2
  Efficacy (difference between neutral response and maximum compound response): -44.826
  Max Resp (difference between neutral response and response at highest compound concentration): -97.729
  AC50: 2.67e-06 M
[8]; [10]
  AC50: 2.67e-06 M
YFV (YFV 17D)
  YFV active Yes/No: No
WNV (Kern515/WN02)
  Activity against WNV: weaker against WNV and ZIKV
  SI value WHV (CC50/EC50): 7.6
  Selectivity Index WHV (CC50/EC50): 8
  WHV active Yes/No: Yes

## CNC(=O)c1cc(Oc2ccc(NC(=O)Nc3cc(C(C)(C)C)nn3-c3ccc4ncccc4c3)c(F)c2)ccn1 [NCGC00263172-09]
[1]
  IC50: 8.27 µM
[2]
  Efficacy: -38.32
  Max Resp: -37.38
  AC50: 4.47e-05 M
  IC50: 44.7 µM
[2]; [10]
  AC50: 4.47e-05 M
[3]
  DENV active Yes/No: No
[4]
  IC50: 0.01 µM
In vitro [5]
  CC50 at 24 h: 12.1 µM
In vitro [9]
  CC50: > 30 µM
[6]
  CC-v2 (curve class classification of the dose response curve): -1.2
  Efficacy: -30.756
  AC50: 2.91e-05 M
  IC50: 29.1 µM
[6]; [10]
  AC50: 2.91e-05 M
In vitro [7]
  CC50 at 48 h: > 50 µM
ZIKV
  ZIKV active Yes/No: No
[8]
  CC-v2 (curve class of the dose response curve): -1.2
  Efficacy (difference between neutral response and maximum compound response): -48.4
  Max Resp (difference between neutral response and response at highest compound concentration): -100.305
  AC50: 9.46e-07 M
[8]; [10]
  AC50: 9.46e-07 M
YFV (YFV 17D)
  YFV active Yes/No: No
WNV (Kern515/WN02)
  WHV active Yes/No: No

## C=C1CCC2[C@](C)(CCC[C@]2(C)C(=O)O)[C@H]1CC/C(C)=C/C(=O)OC (some centres unmarked) [NCGC00168922-02]
[1]
  IC50: 0.07 µM
[2]
  CC-v2 (curve class): 4
  Efficacy: -21.467
  Max Resp: -17.835
  IC50: 11.2 µM
[3]
  DENV active Yes/No: No
[4]
  IC50: 7.24 µM
In vitro [5]
  CC50 at 24 h: 13.3 µM
In vitro [9]
  CC50: > 30 µM
[6]
  Efficacy: -63.179
  AC50: 4.04e-07 M
  IC50: 0.4 µM
[6]; [10]
  AC50: 4.04e-07 M
In vitro [7]
  CC50 at 48 h: > 50 µM
ZIKV
  ZIKV active Yes/No: No
[8]
  CC-v2 (curve class of the dose response curve): -1.4
  Efficacy (difference between neutral response and maximum compound response): -50.999
  Max Resp (difference between neutral response and response at highest compound concentration): -55.843
YFV (YFV 17D)
  YFV active Yes/No: No
WNV (Kern515/WN02)
  WHV active Yes/No: No

## Cc1[nH]c2ccccc2c1C1=C(NCCc2ccc(F)cc2)C(=O)N(C)C1=O [NCGC00386352-05]
[1]
  IC50: 7.37 µM
[2]
  Antiviral activity in human NPC: effectively inhibited ZIKV in NPC cells
  CC-v2 (curve class): -2.2
  Efficacy: -103.895
  Max Resp: -78.246
  AC50: 3.98e-05 M
  IC50: 39.8 µM
[2]; [10]
  AC50: 3.98e-05 M
[3]
  Activity against DENV: active against both DENV and ZIKV
  DENV active Yes/No: Yes
  SI value DENV (CC50/EC50): 24
  Selectivity Index DENV (CC50/EC50): 24
[4]
  IC50: 33.1 µM
In vitro [5]
  CC50 at 24 h: 17.8 µM
In vitro [9]
  CC50: > 30 µM
[6]
  CC-v2 (curve class classification of the dose response curve): -1.2
  Efficacy: -35.912
  AC50: 2.06e-05 M
  IC50: 20.6 µM
[6]; [10]
  AC50: 2.06e-05 M
In vitro [7]
  CC50 at 48 h: > 50 µM
ZIKV
  Activity against ZIKV: active against both DENV and ZIKV
  SI value ZIKV (CC50/EC50): 23
  Selectivity Index ZIKV (CC50/EC50): 23
  ZIKV active Yes/No: Yes
[8]
  CC-v2 (curve class of the dose response curve): -1.4
  Efficacy (difference between neutral response and maximum compound response): -71.769
  Max Resp (difference between neutral response and response at highest compound concentration): -66.876
YFV (YFV 17D)
  YFV active Yes/No: No
WNV (Kern515/WN02)
  WHV active Yes/No: No

## CCC[S+](=O)([O-])Nc1ccc(F)c(C(=O)c2c[nH]c3ncc(-c4ccc(Cl)cc4)cc23)c1F [NCGC00250399-05]
[1]
  IC50: 9.28 µM
[2]
  CC-v2 (curve class): 4
  Efficacy: -22.524
  Max Resp: -6.687
  IC50: 35.5 µM
[3]
  DENV active Yes/No: Yes
  SI value DENV (CC50/EC50): 4.3
  Selectivity Index DENV (CC50/EC50): 4
[4]
  IC50: 8.31 µM
In vitro [5]
  CC50: > 30 µM
[6]
  Efficacy: -40.165
  AC50: 1.46e-06 M
  IC50: 1.46 µM
[6]; [10]
  AC50: 1.46e-06 M
In vitro [7]
  CC50: > 50 µM
ZIKV
  SI value ZIKV (CC50/EC50): 14
  Selectivity Index ZIKV (CC50/EC50): 14
  ZIKV active Yes/No: Yes
[8]
  CC-v2 (curve class of the dose response curve): 5
  Efficacy (difference between neutral response and maximum compound response): 0
  Max Resp (difference between neutral response and response at highest compound concentration): -69.344
YFV (YFV 17D)
  YFV active Yes/No: No
WNV (Kern515/WN02)
  SI value WHV (CC50/EC50): 2
  Selectivity Index WHV (CC50/EC50): 2
  WHV active Yes/No: No

## COc1ccc2c(c1)C=C1Cn3c-2c(C2CCCCC2)c2ccc(cc23)C(=O)N[S+](=O)([O-])N(C)CCOCCN(C)C1=O [NCGC00482982-02]
[1]
  IC50: 20.8 µM
[2]
  CC-v2 (curve class): 4
  Efficacy: -30.77
  Max Resp: -24.808
  IC50: 5.01 µM
[3]
  DENV active Yes/No: No
[4]
  IC50: 1.66 µM
In vitro [5]
  CC50 at 24 h: > 30 µM
In vitro [9]
  CC50: > 30 µM
[6]
  CC-v2 (curve class classification of the dose response curve): -2.2
  Efficacy: -39.12
  AC50: 2.59e-05 M
  IC50: 25.9 µM
[6]; [10]
  AC50: 2.59e-05 M
In vitro [7]
  CC50 at 48 h: > 50 µM
ZIKV
  ZIKV active Yes/No: No
[8]
  CC-v2 (curve class of the dose response curve): -1.4
  Efficacy (difference between neutral response and maximum compound response): -60.775
  Max Resp (difference between neutral response and response at highest compound concentration): -100.29
YFV (YFV 17D)
  YFV active Yes/No: No
WNV (Kern515/WN02)
  WHV active Yes/No: No

## CC(C)(C#N)c1ccc(N2C(=O)OCc3cnc4ccc(-c5cnc6ccccc6c5)cc4c32)cc1 [NCGC00386292-05]
[1]
  IC50: 2.93 µM
[2]
  Antiviral activity in human NPC: moderate antiviral activity
  Efficacy: -38.419
  Max Resp: 3.825
  AC50: 2.51e-05 M
  IC50: 25.1 µM
[2]; [10]
  AC50: 2.51e-05 M
[3]
  DENV active Yes/No: No
[4]
  IC50: 0.04 µM
In vitro [5]
  CC50 at 24 h: > 30 µM
[6]
  Efficacy: -23.858
  AC50: 4.61e-06 M
  IC50: 4.61 µM
[6]; [10]
  AC50: 4.61e-06 M
In vitro [7]
  CC50 at 48 h: > 50 µM
ZIKV
  SI value ZIKV (CC50/EC50): 3
  Selectivity Index ZIKV (CC50/EC50): 3
  ZIKV active Yes/No: Yes
[8]
  CC-v2 (curve class of the dose response curve): -1.2
  Efficacy (difference between neutral response and maximum compound response): -67.723
  Max Resp (difference between neutral response and response at highest compound concentration): -93.524
  AC50: 5.32e-07 M
[8]; [10]
  AC50: 5.32e-07 M
YFV (YFV 17D)
  YFV active Yes/No: No
WNV (Kern515/WN02)
  WHV active Yes/No: No

## Nc1ccn([C@@H]2O[C@H](CO)[C@@H](O)C2(F)F)c(=O)n1 [NCGC00168784-08, gemcitabine, reference compound]
[1]
  IC50: 0.02 µM
[2]
  Antiviral activity in human NPC: moderate antiviral activity
  CC-v2 (curve class): -1.2
  Efficacy: -65.573
  Max Resp: -52.766
  AC50: 6.31e-06 M
  IC50: 6.31 µM
[2]; [10]
  AC50: 6.31e-06 M
[4]
  IC50: > 48 µM
In vitro [5]
  CC50 at 24 h: 16.3 µM
In vitro [9]
  CC50: > 30 µM
[6]
  Efficacy: -24.938
  AC50: 9.2e-06 M
  IC50: 9.2 µM
[6]; [10]
  AC50: 9.2e-06 M
In vitro [7]
  CC50 at 48 h: > 50 µM
[8]
  CC-v2 (curve class of the dose response curve): -1.2
  Efficacy (difference between neutral response and maximum compound response): -61.697
  Max Resp (difference between neutral response and response at highest compound concentration): -99.896
  AC50: 2.67e-09 M
[8]; [10]
  AC50: 2.67e-09 M
